{"source": "PubChem BioAssay AID1259407", "about": "(Chemical Carcinogenesis Research Information System (CCRIS), 2018)", "system": "CCRIS mutagenicity, Ames/micronucleus/aberration tests", "experiment": "CCRIS mutagenicity studies", "key": {"[1]": {"conditions": "Test System: AMES SALMONELLA TYPHIMURIUM, Strain/Indicator: TA98, Metabolic Activation: NONE, Method: PREINCUBATION"}, "[2]": {"conditions": "Test System: AMES SALMONELLA TYPHIMURIUM, Strain/Indicator: TA100, Metabolic Activation: NONE, Method: PREINCUBATION"}, "[3]": {"conditions": "Test System: AMES SALMONELLA TYPHIMURIUM, Strain/Indicator: TA1535, Metabolic Activation: NONE, Method: PREINCUBATION"}, "[4]": {"conditions": "Test System: AMES SALMONELLA TYPHIMURIUM, Strain/Indicator: TA98, Metabolic Activation: NONE, Method: STANDARD PLATE"}, "[5]": {"conditions": "Test System: AMES SALMONELLA TYPHIMURIUM, Strain/Indicator: TA100, Metabolic Activation: NONE, Method: STANDARD PLATE"}}, "note": "Calls of active or inactive are those of the source. No rule for the calls is given here."}
{"smiles": "C[C@@H](O)[C@H]1C(=O)N2C(C(=O)O)=C([C@H]3CCCO3)S[C@H]12", "values": [{"measurement": "mutagenic call", "setting": "[1]", "value": "inactive; negative"}, {"measurement": "mutagenic call", "setting": "Test System: AMES SALMONELLA TYPHIMURIUM, Strain/Indicator: TA98, Metabolic Activation: S-9, Method: PREINCUBATION", "value": "inactive; negative"}, {"measurement": "mutagenic call", "setting": "[2]", "value": "inactive; negative"}, {"measurement": "mutagenic call", "setting": "Test System: AMES SALMONELLA TYPHIMURIUM, Strain/Indicator: TA100, Metabolic Activation: S-9, Method: PREINCUBATION", "value": "inactive; negative"}, {"measurement": "mutagenic call", "setting": "[3]", "value": "inactive; negative"}, {"measurement": "mutagenic call", "setting": "Test System: AMES SALMONELLA TYPHIMURIUM, Strain/Indicator: TA1535, Metabolic Activation: S-9, Method: PREINCUBATION", "value": "inactive; negative"}, {"measurement": "mutagenic call", "setting": "Test System: AMES SALMONELLA TYPHIMURIUM, Strain/Indicator: TA1537, Metabolic Activation: NONE, Method: PREINCUBATION", "value": "inactive; negative"}, {"measurement": "mutagenic call", "setting": "Test System: AMES SALMONELLA TYPHIMURIUM, Strain/Indicator: TA1537, Metabolic Activation: S-9, Method: PREINCUBATION", "value": "inactive; negative"}, {"measurement": "mutagenic call", "setting": "Test System: E.COLI, Strain/Indicator: WP2 UVRA, Metabolic Activation: NONE, Method: PREINCUBATION", "value": "inactive; negative"}, {"measurement": "mutagenic call", "setting": "Test System: E.COLI, Strain/Indicator: WP2 UVRA, Metabolic Activation: S-9, Method: PREINCUBATION", "value": "inactive; negative"}]}
{"smiles": "C/C=C/C=C/CCCCCCCO", "values": [{"measurement": "mutagenic call", "setting": "[4]", "value": "inactive; negative"}, {"measurement": "mutagenic call", "setting": "Test System: AMES SALMONELLA TYPHIMURIUM, Strain/Indicator: TA98, Metabolic Activation: RAT, LIVER, S-9, Method: STANDARD PLATE", "value": "inactive; negative"}, {"measurement": "mutagenic call", "setting": "[5]", "value": "inactive; negative"}, {"measurement": "mutagenic call", "setting": "Test System: AMES SALMONELLA TYPHIMURIUM, Strain/Indicator: TA100, Metabolic Activation: RAT, LIVER, S-9, Method: STANDARD PLATE", "value": "inactive; negative"}, {"measurement": "mutagenic call", "setting": "Test System: AMES SALMONELLA TYPHIMURIUM, Strain/Indicator: TA102, Metabolic Activation: NONE, Method: STANDARD PLATE", "value": "inactive; negative"}, {"measurement": "mutagenic call", "setting": "Test System: AMES SALMONELLA TYPHIMURIUM, Strain/Indicator: TA102, Metabolic Activation: RAT, LIVER, S-9, Method: STANDARD PLATE", "value": "inactive; negative"}]}
{"smiles": "O=[N+]([O-])c1ccccc1OS(=O)(=O)c1cccc2cccnc12", "values": [{"measurement": "mutagenic call", "setting": "[4]", "value": "inactive; negative"}, {"measurement": "mutagenic call", "setting": "Test System: AMES SALMONELLA TYPHIMURIUM, Strain/Indicator: TA98, Metabolic Activation: RAT, LIVER, S-9, AROCLOR 1254, Method: STANDARD PLATE", "value": "active; positive"}, {"measurement": "mutagenic call", "setting": "[5]", "value": "inactive; negative"}, {"measurement": "mutagenic call", "setting": "Test System: AMES SALMONELLA TYPHIMURIUM, Strain/Indicator: TA100, Metabolic Activation: RAT, LIVER, S-9, AROCLOR 1254, Method: STANDARD PLATE", "value": "active; positive"}, {"measurement": "mutagenic call", "setting": "Test System: AMES SALMONELLA TYPHIMURIUM, Strain/Indicator: TA1535, Metabolic Activation: NONE, Method: STANDARD PLATE", "value": "inactive; negative"}, {"measurement": "mutagenic call", "setting": "Test System: AMES SALMONELLA TYPHIMURIUM, Strain/Indicator: TA1535, Metabolic Activation: RAT, LIVER, S-9, AROCLOR 1254, Method: STANDARD PLATE", "value": "inactive; negative"}, {"measurement": "mutagenic call", "setting": "Test System: AMES SALMONELLA TYPHIMURIUM, Strain/Indicator: TA1537, Metabolic Activation: NONE, Method: STANDARD PLATE", "value": "inactive; negative"}, {"measurement": "mutagenic call", "setting": "Test System: AMES SALMONELLA TYPHIMURIUM, Strain/Indicator: TA1537, Metabolic Activation: RAT, LIVER, S-9, AROCLOR 1254, Method: STANDARD PLATE", "value": "inactive; negative"}]}
{"smiles": "CCCCCCCOc1ccccc1NC(=O)OC(C)CN(CC)CC", "note": "(configuration not stated)", "values": [{"measurement": "mutagenic call", "setting": "Test System: AMES SALMONELLA TYPHIMURIUM, Strain/Indicator: TA98, Metabolic Activation: MOUSE, LIVER, S-9, AROCLOR 1254, Method: PREINCUBATION", "value": "inactive; negative"}, {"measurement": "mutagenic call", "setting": "[1]", "value": "inactive; negative"}, {"measurement": "mutagenic call", "setting": "Test System: AMES SALMONELLA TYPHIMURIUM, Strain/Indicator: TA100, Metabolic Activation: MOUSE, LIVER, S-9, AROCLOR 1254, Method: PREINCUBATION", "value": "inactive; negative"}, {"measurement": "mutagenic call", "setting": "[2]", "value": "inactive; negative"}, {"measurement": "mutagenic call", "setting": "Test System: AMES SALMONELLA TYPHIMURIUM, Strain/Indicator: TA1535, Metabolic Activation: MOUSE, LIVER, S-9, AROCLOR 1254, Method: PREINCUBATION", "value": "inactive; negative"}, {"measurement": "mutagenic call", "setting": "[3]", "value": "inactive; negative"}, {"measurement": "mutagenic call", "setting": "Test System: AMES SALMONELLA TYPHIMURIUM, Strain/Indicator: TA1538, Metabolic Activation: MOUSE, LIVER, S-9, AROCLOR 1254, Method: PREINCUBATION", "value": "inactive; negative"}, {"measurement": "mutagenic call", "setting": "Test System: AMES SALMONELLA TYPHIMURIUM, Strain/Indicator: TA1538, Metabolic Activation: NONE, Method: PREINCUBATION", "value": "inactive; negative"}, {"measurement": "mutagenic call", "setting": "Test System: AMES SALMONELLA TYPHIMURIUM, Strain/Indicator: TA1978, Metabolic Activation: MOUSE, LIVER, S-9, AROCLOR 1254, Method: PREINCUBATION", "value": "inactive; negative"}, {"measurement": "mutagenic call", "setting": "Test System: AMES SALMONELLA TYPHIMURIUM, Strain/Indicator: TA1978, Metabolic Activation: NONE, Method: PREINCUBATION", "value": "inactive; negative"}, {"measurement": "mutagenic call", "setting": "Test System: E. COLI, Strain/Indicator: CM611 UVRA/LEXA, Metabolic Activation: MOUSE, LIVER, S-9, AROCLOR 1254, Method: PREINCUBATION", "value": "inactive; negative"}, {"measurement": "mutagenic call", "setting": "Test System: E. COLI, Strain/Indicator: CM611 UVRA/LEXA, Metabolic Activation: NONE, Method: PREINCUBATION", "value": "inactive; negative"}, {"measurement": "mutagenic call", "setting": "Test System: E. COLI, Strain/Indicator: WP2, Metabolic Activation: MOUSE, LIVER, S-9, AROCLOR 1254, Method: PREINCUBATION", "value": "inactive; negative"}, {"measurement": "mutagenic call", "setting": "Test System: E. COLI, Strain/Indicator: WP2, Metabolic Activation: NONE, Method: PREINCUBATION", "value": "inactive; negative"}, {"measurement": "mutagenic call", "setting": "Test System: E. COLI, Strain/Indicator: WP2 UVRA, Metabolic Activation: MOUSE, LIVER, S-9, AROCLOR 1254, Method: PREINCUBATION", "value": "inactive; negative"}, {"measurement": "mutagenic call", "setting": "Test System: E. COLI, Strain/Indicator: WP2 UVRA, Metabolic Activation: NONE, Method: PREINCUBATION", "value": "inactive; negative"}, {"measurement": "mutagenic call", "setting": "Test System: E. COLI, Strain/Indicator: WP67 UVRA/POLA, Metabolic Activation: MOUSE, LIVER, S-9, AROCLOR 1254, Method: PREINCUBATION", "value": "inactive; negative"}, {"measurement": "mutagenic call", "setting": "Test System: E. COLI, Strain/Indicator: WP67 UVRA/POLA, Metabolic Activation: NONE, Method: PREINCUBATION", "value": "inactive; negative"}]}
